{"source": "patent US20060286131A1", "about": "“Use of stellate ganglion block for the treatment of hot flashes and other conditions” (priority 2005, published 2006)", "tested_on": "severe menopausal hot flashes", "experiment": "stellate ganglion block with Marcaine in women with hot flashes, self-reported pre and post block", "type": "in vivo", "source_text": "A stellate ganglion block is illustratively performed by placing the patient in the supine position (on the back) with the neck slightly extended and the jaw open. While the patient is usually conscious for the procedure, a medication such as Versed (midazolam hydrochloride), fentanyl, or other sedative is often administered, to relax the patient. A local anesthetic is also usually administered, to numb the skin and tissue down to the ganglion nerve. A needle is inserted toward the stellate ganglion. […] The needle 20 is shown inserted adjacent to the stellate ganglion 10. In the illustrative block, a contrast solution is injected through needle 20 via syringe 22, and the needle position is confirmed by fluoroscopy or other means, as are known in the art.\nThe anesthetic 30 is then injected via needle 20 into stellate ganglion 10. Illustratively, 5 cc 0.375% Marcaine® (bupivacaine) may be used. However, it is understood that other anesthetics, illustratively lidocaine, morphine or other opioids, clonidine, botox, or tetracine, or a combination of anesthetic and epinephrine, may be used and that the dosage range may vary depending on the particular anesthetic and other factors, as are known in the art. Needle 20 is removed, and the patient is optionally placed in the sitting position to facilitate the spread of anesthesia inferiorly to the stellate ganglion. Illustratively, longer acting anesthetics such as bupivacaine are used, but other anesthetics may be used, as are known in the art. The stellate ganglion block may also be performed by radiofrequency lesioning, as is known in the art.\nSix women suffering from severe menopausal hot flashes each received a standard stellate ganglion block (0.375% Marcaine, 5cc), as described above. Hot flashes were assessed by self-reporting pre and post stellate ganglion block."}
{"smiles": "CCCCN1CCCCC1C(=O)Nc1c(C)cccc1C", "note": "(stereo not shown) [Marcaine, bupivacaine]", "values": [{"measurement": "additional asymptomatic period of relief after second stellate ganglion block", "setting": "0.375% Marcaine 5cc, second block after mild hot flashes returned", "value": "4-18 weeks"}, {"measurement": "hot flash relief of repeated blocks compared with the initial block", "setting": "repeated blocks, each case", "value": "equal to or greater than that of the initial block"}, {"measurement": "success of initial stellate ganglion block, evidenced by positive Horner's syndrome and anhydrosis", "setting": "six women, 0.375% Marcaine 5cc", "value": "successful in all six subjects"}, {"measurement": "complete alleviation of hot flashes, duration after initial stellate ganglion block", "setting": "six women, 0.375% Marcaine 5cc, first block, self-reported", "value": "2-5 weeks"}]}
